The values that follow come from ChEMBL document CHEMBL5465560, “Selectivity Literature for EUbOPEN Chemogenomic Library” (2024).

In general, IC50 refers to the concentration at which inhibition is half-maximal.

The target in test [1] is Ribosomal protein S6 kinase alpha-1 (Homo sapiens, UniProt Q15418). Nature of the test: Selectivity interaction (Upstate Kinase Profiler service (Millipore)) EUB0000056c RPS6KA1. To be noted: at 1 µM.
In test [2] the target is Cyclin-dependent kinase 2/cyclin E (Homo sapiens, UniProt P24941). Nature of the test: Selectivity interaction (Enzyme panel (AstraZeneca, AlphaScreen, functional assay)) EUB0000621a CDK2. In kind it is protein-complex assay.
The target in test [3] is Serine/threonine-protein kinase pim-1 (Homo sapiens, UniProt P11309). Kind of test: Selectivity interaction (KinomeScan (DiscoverX)) EUB0000655a PIM1. Conditions: at 10 µM.
Sequence of Serine/threonine-protein kinase pim-1 (P11309 whole entry, looked up): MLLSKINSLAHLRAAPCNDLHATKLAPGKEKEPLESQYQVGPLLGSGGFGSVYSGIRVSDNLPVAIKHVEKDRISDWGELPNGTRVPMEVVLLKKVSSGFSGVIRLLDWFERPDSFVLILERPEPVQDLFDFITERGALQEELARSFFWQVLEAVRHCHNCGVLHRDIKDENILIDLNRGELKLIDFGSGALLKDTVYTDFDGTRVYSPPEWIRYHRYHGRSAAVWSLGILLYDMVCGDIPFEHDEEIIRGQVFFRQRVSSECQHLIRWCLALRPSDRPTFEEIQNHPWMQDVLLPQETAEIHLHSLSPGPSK
The target in test [4] is Cyclin-dependent kinase 1/cyclin B (Homo sapiens) (UniProt P06493+P14635+Q8WWL7+O95067). Nature of the test: Selectivity interaction (SelectScreen profiling (Invitrogen)) EUB0000607a CDK1. In kind it is protein-complex assay. To be noted: at 2 µM.
In test [5] the target is Serine/threonine-protein kinase 38-like (Homo sapiens) (UniProt Q9Y2H1). Kind of test: Selectivity interaction (ActivX KiNativ screen (kinase selectivity in THP-1 cell lysates)) EUB0000639a STK38L. It counts as subcellular. To be noted: lysate, at 0.04 µM.
Sequence of Serine/threonine-protein kinase 38-like (Homo sapiens) (Q9Y2H1 2-464 limits assumed): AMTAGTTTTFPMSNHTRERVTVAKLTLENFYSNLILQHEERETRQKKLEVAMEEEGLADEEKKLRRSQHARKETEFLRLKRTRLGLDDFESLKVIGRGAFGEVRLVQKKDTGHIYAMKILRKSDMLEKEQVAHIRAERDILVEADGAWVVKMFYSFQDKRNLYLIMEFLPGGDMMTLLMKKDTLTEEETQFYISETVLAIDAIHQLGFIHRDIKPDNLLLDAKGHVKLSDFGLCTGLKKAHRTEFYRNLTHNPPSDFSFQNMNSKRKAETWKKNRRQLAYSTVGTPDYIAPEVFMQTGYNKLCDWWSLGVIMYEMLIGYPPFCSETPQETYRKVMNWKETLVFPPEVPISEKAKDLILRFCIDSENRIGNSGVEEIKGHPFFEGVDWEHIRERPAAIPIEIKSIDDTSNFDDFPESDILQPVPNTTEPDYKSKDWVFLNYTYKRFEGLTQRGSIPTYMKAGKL
For another test, the target named is Insulin receptor (Homo sapiens, UniProt P06213). Kind of test: Selectivity interaction (Kinase panel (33PanQinase(R) Activity Assay)) EUB0000877a INSR.
Sequence of Insulin receptor (P06213 28-758 limits assumed): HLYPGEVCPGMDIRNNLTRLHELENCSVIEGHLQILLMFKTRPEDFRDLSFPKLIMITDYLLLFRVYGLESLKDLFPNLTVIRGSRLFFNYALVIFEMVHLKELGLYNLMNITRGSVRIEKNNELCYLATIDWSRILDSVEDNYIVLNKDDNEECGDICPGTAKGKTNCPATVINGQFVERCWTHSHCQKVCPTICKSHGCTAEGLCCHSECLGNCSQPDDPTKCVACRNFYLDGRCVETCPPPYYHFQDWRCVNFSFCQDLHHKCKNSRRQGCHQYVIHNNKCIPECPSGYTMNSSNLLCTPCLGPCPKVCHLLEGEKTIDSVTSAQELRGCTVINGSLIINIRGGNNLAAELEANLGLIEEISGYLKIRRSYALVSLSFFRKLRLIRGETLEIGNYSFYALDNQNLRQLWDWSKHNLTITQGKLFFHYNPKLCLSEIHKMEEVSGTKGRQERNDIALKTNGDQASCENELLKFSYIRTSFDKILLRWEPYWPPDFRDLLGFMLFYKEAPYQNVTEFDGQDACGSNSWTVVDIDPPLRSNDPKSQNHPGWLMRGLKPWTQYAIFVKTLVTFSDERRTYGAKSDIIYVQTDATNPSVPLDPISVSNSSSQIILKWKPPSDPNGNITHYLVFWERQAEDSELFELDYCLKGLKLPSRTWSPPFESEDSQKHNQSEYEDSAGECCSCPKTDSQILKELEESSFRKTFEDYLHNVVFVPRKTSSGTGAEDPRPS
Sequence of Insulin receptor (P06213 763-1382 limits assumed): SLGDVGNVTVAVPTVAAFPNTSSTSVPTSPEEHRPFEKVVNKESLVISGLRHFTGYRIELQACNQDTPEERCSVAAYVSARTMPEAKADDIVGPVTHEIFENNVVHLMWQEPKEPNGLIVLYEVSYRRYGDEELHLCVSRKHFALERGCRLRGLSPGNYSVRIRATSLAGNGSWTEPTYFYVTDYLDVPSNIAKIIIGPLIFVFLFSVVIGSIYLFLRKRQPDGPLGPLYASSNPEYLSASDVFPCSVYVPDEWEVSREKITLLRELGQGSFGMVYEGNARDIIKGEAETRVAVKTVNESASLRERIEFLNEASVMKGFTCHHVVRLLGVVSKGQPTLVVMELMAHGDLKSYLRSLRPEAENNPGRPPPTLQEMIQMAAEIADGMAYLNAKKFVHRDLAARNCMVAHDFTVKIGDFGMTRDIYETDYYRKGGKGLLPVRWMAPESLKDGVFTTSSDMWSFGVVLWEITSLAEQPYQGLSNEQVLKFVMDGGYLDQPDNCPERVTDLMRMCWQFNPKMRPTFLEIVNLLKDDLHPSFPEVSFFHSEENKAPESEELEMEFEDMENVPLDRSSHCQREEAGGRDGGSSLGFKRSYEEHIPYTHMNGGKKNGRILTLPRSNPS
The target of test [6] is Muscarinic acetylcholine receptor M3 (Homo sapiens, UniProt P20309). Kind of test: Selectivity interaction (Muscarinic M3 receptor assay, human recombinant ) EUB0000877a CHRM3.
Test [7] addresses Serine/threonine-protein kinase MRCK alpha (Homo sapiens) (UniProt Q5VT25). Kind of test: Selectivity interaction (Kinase panel (DSF assay)) EUB0001559a CDC42BPA. Background: DSF heats the sample and reads unfolding from a dye or from intrinsic fluorescence.
The target of test [8] is T1, Dual serine/threonine and tyrosine protein kinase (Homo sapiens) (UniProt Q6XUX3).
T1 sequence (whole entry): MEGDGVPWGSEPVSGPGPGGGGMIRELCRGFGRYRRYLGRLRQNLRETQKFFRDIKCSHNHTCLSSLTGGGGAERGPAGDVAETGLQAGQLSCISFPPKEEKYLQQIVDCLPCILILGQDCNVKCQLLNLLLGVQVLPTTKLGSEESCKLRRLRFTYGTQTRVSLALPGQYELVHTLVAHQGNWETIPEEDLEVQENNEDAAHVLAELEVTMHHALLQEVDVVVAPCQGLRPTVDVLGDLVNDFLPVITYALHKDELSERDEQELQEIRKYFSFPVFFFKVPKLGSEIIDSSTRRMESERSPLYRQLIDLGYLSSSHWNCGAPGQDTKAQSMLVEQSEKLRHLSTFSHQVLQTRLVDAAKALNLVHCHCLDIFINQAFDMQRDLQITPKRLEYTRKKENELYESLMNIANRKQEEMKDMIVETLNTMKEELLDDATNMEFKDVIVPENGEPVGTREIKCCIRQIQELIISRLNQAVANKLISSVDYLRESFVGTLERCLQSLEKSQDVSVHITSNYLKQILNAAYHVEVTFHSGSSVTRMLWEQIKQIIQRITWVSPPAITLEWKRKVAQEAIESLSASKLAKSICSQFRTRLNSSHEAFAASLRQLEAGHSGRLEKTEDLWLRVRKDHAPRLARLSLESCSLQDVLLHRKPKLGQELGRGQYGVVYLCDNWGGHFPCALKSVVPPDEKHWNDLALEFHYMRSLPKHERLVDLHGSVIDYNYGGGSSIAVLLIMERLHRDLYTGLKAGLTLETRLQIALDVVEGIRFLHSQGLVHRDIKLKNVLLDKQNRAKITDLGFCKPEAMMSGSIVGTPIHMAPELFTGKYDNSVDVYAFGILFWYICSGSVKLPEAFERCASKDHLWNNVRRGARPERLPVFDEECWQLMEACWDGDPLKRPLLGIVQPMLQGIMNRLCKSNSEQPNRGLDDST
Kind of test: Selectivity interaction (KinomeScan (DiscoverX)) EUB0000595a DSTYK. Conditions: at 10 µM.

The target of test [9] is T2, Serine/threonine-protein kinase Nek1 (Homo sapiens) (UniProt Q96PY6).
T2 sequence (whole entry): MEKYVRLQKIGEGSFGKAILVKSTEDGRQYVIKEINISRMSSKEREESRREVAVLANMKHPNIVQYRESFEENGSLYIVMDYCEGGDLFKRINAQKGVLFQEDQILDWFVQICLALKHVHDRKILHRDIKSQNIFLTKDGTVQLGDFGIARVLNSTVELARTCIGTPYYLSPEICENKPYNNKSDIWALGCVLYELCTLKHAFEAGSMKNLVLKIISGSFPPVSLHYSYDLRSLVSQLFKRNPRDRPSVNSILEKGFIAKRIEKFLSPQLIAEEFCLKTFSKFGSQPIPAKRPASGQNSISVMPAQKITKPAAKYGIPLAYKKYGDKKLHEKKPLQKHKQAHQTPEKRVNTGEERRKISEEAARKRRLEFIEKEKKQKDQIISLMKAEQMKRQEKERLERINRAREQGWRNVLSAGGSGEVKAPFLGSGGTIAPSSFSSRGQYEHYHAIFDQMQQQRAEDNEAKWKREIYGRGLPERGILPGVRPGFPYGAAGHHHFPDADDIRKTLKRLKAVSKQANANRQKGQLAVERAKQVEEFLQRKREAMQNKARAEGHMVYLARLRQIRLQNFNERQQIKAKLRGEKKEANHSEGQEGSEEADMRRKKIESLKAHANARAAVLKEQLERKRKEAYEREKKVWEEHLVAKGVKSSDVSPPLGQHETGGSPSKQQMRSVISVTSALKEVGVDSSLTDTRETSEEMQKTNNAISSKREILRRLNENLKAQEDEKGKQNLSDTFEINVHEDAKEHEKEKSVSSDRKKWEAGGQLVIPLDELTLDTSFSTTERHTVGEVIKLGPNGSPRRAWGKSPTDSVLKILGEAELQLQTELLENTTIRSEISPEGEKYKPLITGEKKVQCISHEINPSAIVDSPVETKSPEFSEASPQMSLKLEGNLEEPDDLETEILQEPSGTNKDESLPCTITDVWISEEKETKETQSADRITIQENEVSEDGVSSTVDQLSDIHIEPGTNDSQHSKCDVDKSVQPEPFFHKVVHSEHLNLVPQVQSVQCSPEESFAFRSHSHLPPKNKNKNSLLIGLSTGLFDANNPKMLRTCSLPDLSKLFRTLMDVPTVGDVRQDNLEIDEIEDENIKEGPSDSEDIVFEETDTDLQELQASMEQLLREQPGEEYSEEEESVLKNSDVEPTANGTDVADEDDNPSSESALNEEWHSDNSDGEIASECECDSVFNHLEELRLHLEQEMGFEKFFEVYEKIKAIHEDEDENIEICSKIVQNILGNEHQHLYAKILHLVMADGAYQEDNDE
Kind of test: Selectivity interaction (ActivX KiNativ screen (ex vivo kinase selectivity in human PBMCs)) EUB0001619a NEK1. In kind it is cell-based. To be noted: PBMC, at 1 µM.

In test [10] the target is Serine/threonine-protein kinase 26 (Homo sapiens, UniProt Q9P289). Kind of test: Selectivity interaction (Kinase panel (KiNativ target engagement assay in Jurkat cells)) EUB0001635a STK26. To be noted: Selectivity number of off-targets 0.0, Selectivity number of targets 233.0, Source Knowledge https://www.sciencedirect.com/science/article/pii/S2451945619300674?via%3Dihub, at 1 µM. In kind it is cell-based.
Sequence of Serine/threonine-protein kinase 26 (Q9P289 2-416 limits assumed): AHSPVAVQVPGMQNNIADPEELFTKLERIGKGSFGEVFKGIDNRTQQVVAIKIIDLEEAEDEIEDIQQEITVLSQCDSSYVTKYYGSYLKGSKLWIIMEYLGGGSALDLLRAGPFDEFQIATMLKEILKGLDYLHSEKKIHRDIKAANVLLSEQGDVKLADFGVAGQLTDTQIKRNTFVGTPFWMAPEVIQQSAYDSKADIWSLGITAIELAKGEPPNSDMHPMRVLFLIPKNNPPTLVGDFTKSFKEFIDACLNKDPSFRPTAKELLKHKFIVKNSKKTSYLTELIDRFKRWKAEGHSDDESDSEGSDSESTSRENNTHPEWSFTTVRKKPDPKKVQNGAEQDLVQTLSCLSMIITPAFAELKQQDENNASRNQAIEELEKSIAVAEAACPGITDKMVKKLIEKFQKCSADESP

Sequence of Ribosomal protein S6 kinase alpha-1 (Q15418 whole entry): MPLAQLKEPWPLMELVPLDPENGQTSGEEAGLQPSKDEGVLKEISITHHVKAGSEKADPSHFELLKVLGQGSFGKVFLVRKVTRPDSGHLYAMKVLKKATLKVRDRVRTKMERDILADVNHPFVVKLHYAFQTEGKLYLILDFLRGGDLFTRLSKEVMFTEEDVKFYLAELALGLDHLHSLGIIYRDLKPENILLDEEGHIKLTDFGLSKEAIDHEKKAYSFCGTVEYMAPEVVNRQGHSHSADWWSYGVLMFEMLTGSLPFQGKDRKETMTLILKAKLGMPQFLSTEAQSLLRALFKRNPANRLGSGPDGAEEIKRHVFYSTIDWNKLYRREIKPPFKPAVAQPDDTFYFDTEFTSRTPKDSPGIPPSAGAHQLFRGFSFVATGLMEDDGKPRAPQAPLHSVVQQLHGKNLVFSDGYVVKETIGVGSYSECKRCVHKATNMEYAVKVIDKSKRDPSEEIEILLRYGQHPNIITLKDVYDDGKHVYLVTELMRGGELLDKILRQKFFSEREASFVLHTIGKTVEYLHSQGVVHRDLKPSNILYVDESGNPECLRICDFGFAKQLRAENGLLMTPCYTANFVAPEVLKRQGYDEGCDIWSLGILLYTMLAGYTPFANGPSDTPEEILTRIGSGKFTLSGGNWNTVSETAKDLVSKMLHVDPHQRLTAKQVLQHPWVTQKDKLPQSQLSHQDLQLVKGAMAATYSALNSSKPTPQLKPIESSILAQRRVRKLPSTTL
Sequence of Serine/threonine-protein kinase MRCK alpha (Homo sapiens) (Q5VT25 whole entry): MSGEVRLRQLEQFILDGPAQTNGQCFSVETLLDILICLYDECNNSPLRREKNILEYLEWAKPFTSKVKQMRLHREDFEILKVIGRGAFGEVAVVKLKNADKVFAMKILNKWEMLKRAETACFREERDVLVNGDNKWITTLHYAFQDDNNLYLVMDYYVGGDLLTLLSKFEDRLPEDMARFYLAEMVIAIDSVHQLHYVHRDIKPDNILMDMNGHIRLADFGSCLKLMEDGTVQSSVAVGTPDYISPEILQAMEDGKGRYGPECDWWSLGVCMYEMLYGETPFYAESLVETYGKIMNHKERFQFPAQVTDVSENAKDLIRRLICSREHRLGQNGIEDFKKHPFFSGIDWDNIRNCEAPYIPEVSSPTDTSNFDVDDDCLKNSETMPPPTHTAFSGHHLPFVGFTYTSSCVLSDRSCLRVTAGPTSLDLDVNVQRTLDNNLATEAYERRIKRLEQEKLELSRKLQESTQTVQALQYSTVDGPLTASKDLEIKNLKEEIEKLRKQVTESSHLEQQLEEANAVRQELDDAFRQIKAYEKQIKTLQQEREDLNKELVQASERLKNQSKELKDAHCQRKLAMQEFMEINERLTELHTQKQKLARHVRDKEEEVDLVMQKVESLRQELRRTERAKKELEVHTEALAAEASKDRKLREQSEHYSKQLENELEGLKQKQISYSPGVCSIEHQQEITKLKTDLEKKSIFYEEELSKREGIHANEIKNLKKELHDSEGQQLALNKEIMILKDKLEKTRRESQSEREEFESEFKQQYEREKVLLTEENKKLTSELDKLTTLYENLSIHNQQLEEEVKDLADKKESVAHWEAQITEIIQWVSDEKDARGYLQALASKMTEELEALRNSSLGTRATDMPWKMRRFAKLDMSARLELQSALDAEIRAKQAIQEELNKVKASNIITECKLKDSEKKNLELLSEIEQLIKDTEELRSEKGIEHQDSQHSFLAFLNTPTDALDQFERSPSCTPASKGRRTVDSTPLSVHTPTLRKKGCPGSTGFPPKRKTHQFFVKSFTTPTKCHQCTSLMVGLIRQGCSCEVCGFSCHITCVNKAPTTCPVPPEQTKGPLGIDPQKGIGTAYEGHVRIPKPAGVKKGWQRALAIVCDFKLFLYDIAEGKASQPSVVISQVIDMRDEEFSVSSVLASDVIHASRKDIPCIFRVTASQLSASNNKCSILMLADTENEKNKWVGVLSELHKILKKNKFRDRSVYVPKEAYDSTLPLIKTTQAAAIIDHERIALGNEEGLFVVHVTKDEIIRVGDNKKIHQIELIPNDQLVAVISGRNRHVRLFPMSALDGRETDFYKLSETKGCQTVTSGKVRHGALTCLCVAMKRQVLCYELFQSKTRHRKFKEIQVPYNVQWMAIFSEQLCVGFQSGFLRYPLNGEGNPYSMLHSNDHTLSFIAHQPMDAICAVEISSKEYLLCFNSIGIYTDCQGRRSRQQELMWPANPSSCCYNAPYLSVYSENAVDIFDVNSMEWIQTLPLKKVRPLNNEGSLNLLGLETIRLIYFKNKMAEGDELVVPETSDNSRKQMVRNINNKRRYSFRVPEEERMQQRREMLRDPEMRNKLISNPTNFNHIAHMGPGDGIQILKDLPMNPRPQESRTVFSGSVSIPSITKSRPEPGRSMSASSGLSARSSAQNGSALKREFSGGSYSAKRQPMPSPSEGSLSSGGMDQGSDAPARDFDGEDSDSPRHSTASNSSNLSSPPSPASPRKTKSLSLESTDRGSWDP

For the molecule `Cc1ccc(-c2ccc3c(ccc4sc5c(c43)NC[C@@H](C)NC5=O)n2)cn1`, the % of inhibition in [1] was 17%.

For `Cc1cc([C@@H](C)Nc2ccccc2C(=O)O)c2nc(N3CCOCC3)cc(=O)n2c1` [AZD-6482], the IC50 in test [2] was over 1000 µM. In test [3], `CN(C)CCOc1ccc(-c2nc(-c3ccncc3)c(-c3ccc4c(c3)CC/C4=N\O)[nH]2)cc1` came in with a % of control of 86%. Turning to `CNC(=O)Nc1ccc(-c2nc(N3CC4CCC(C3)O4)c3cnn(C4CCC5(CC4)OCCO5)c3n2)cc1`, in test [4], the % of inhibition stood at 6%.

As for `CC[C@@H]1[C@H](F)C(=O)N[C@@H]1COc1nccc2cc(C(N)=O)c(OC)cc12` [ZIMLOVISERTIB], in [5], the % of inhibition amounted to 7.6%. As to `CCC(=O)N1CC[C@H](Nc2ncnc3c2CN(c2cnc(OC)c(C(F)(F)F)c2)CC3)C1` [LENIOLISIB], the IC50 at Insulin receptor was over 10 µM; in [6] it was over 30 µM. The molecule `CN(C(=O)c1cnn2cccnc12)c1cc2c(cc1N1CCOCC1)C(=O)N(C[C@@H](F)C(C)(C)O)C2` gave a dTM in test [7] of 0 K.

With `COCC(=O)NC/C=C/c1ccc2ncnc(Nc3ccc(Oc4ccc(C)nc4)c(C)c3)c2c1` [CP-724714], the % of control in [8] is 75%. Turning to `N#Cc1cccc(-c2c[nH]c3ncnc(N4CCOCC4)c23)c1`, the % of inhibition in test [9] was -2%.

On to `C=CC(=O)Nc1ccc(C(=O)Nc2[nH]nc3c2CN(C(=O)N[C@H](CN(C)C)c2ccccc2)C3(C)C)cc1`, for which, in [10], the % of engagement is -26.3%.
